Where “and” joins values, the source holds several entries; their conditions need not be identical. Identical values can stand only once. Inconclusive results and toxic doses are left out. The calls were made as follows: active = survival T/C of 150% or more; inactive = T/C below 125% in these data.
Tested on: BDF1 mice, P388 leukemia ip, median survival T/C
Test: NCI In Vivo Anticancer Drug Screen. Data for tumor model P388 Leukemia (intraperitoneal) in B6D2F1 (BDF1) mice
Conditions: endpoint: median survival time, higher = longer survival
How it was run: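 Read-out is survival of treated animals expressed relative to the vehicle group, as a T/C ratio.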

[1] = dose: 50.0 mg/kg/injection, schedule: Q04DX003 (ip), vehicle: saline
[2] = dose: 100.0 mg/kg/injection, schedule: Q04DX003 (ip), vehicle: saline
[3] = dose: 200.0 mg/kg/injection, schedule: Q04DX003 (ip), vehicle: saline
[4] = dose: 400.0 mg/kg/injection, schedule: Q04DX003 (ip), vehicle: saline
[5] = dose: 100.0 mg/kg/injection, schedule: Q04DX003 (ip), vehicle: saline with Tween-80
[6] = dose: 200.0 mg/kg/injection, schedule: Q04DX003 (ip), vehicle: saline with Tween-80
[7] = dose: 400.0 mg/kg/injection, schedule: Q04DX003 (ip), vehicle: saline with Tween-80
[8] = dose: 25.0 mg/kg/injection, schedule: Q04DX003 (ip), vehicle: saline
[9] = dose: 100.0 mg/kg/injection, schedule: Q01DX009 (ip), vehicle: saline with Tween-80
[10] = dose: 200.0 mg/kg/injection, schedule: Q01DX009 (ip), vehicle: saline with Tween-80
[11] = dose: 400.0 mg/kg/injection, schedule: Q01DX009 (ip), vehicle: saline with Tween-80
[12] = dose: 25.0 mg/kg/injection, schedule: Q01DX009 (ip), vehicle: saline with Tween-80
[13] = dose: 50.0 mg/kg/injection, schedule: Q01DX009 (ip), vehicle: saline with Tween-80

Measured: T/C

C[C@]12C=CC(=O)C=C1CC[C@@H]1[C@@H]2C(=O)C[C@@]2(C)[C@H]1CC[C@]2(O)C(=O)CO
inactive: dose: 0.8 mg/kg/injection, schedule: Q01DX009 (ip), vehicle: carboxymethylcellulose (CMC) 90 % of control | dose: 1.6 mg/kg/injection, schedule: Q01DX009 (ip), vehicle: carboxymethylcellulose (CMC) 99 % of control | dose: 3.12 mg/kg/injection, schedule: Q01DX009 (ip), vehicle: carboxymethylcellulose (CMC) 99 % of control | dose: 6.25 mg/kg/injection, schedule: Q01DX009 (ip), vehicle: carboxymethylcellulose (CMC) 89 % of control and 103 % of control | dose: 6.25 mg/kg/injection, schedule: Q03HX008 (ip), vehicle: saline 107 % of control | dose: 6.25 mg/kg/injection, schedule: Q03HX016 (ip), vehicle: saline 100 % of control | dose: 6.25 mg/kg/injection, schedule: Q03HX024 (ip), vehicle: saline 100 % of control | dose: 12.5 mg/kg/injection, schedule: Q01DX009 (ip), vehicle: carboxymethylcellulose (CMC) 87 % of control and 89 % of control | dose: 12.5 mg/kg/injection, schedule: Q03HX008 (ip), vehicle: saline 100 % of control | dose: 12.5 mg/kg/injection, schedule: Q03HX016 (ip), vehicle: saline 100 % of control | dose: 12.5 mg/kg/injection, schedule: Q03HX024 (ip), vehicle: saline 87 % of control | dose: 25.0 mg/kg/injection, schedule: Q03HX008 (ip), vehicle: saline 100 % of control | dose: 25.0 mg/kg/injection, schedule: Q03HX016 (ip), vehicle: saline 100 % of control | dose: 25.0 mg/kg/injection, schedule: Q03HX024 (ip), vehicle: saline 87 % of control | dose: 44.0 mg/kg/injection, schedule: Q04DX003 (sc), vehicle: Klucel (hydroxypropylcellulose) (HPC) 113 % of control | dose: 50.0 mg/kg/injection, schedule: Q01DX001 (ip), vehicle: saline 107 % of control | dose: 50.0 mg/kg/injection, schedule: Q01DX009 (ip), vehicle: carboxymethylcellulose (CMC) 90 % of control and 93 % of control | dose: 50.0 mg/kg/injection, schedule: Q03HX008 (ip), vehicle: saline 100 % of control | dose: 50.0 mg/kg/injection, schedule: Q03HX016 (ip), vehicle: saline 107 % of control | dose: 50.0 mg/kg/injection, schedule: Q03HX024 (ip), vehicle: saline 87 % of control | [1] 93 % of control | dose: 50.0 mg/kg/injection, schedule: Q08DX002 (ip), vehicle: saline 87 % of control | dose: 67.0 mg/kg/injection, schedule: Q04DX003 (sc), vehicle: Klucel (hydroxypropylcellulose) (HPC) 114 % of control | dose: 100.0 mg/kg/injection, schedule: Q01DX001 (ip), vehicle: saline 114 % of control | dose: 100.0 mg/kg/injection, schedule: Q03HX008 (ip), vehicle: saline 100 % of control | dose: 100.0 mg/kg/injection, schedule: Q03HX016 (ip), vehicle: saline 114 % of control | dose: 100.0 mg/kg/injection, schedule: Q03HX024 (ip), vehicle: saline 87 % of control | [2] 106 % of control | dose: 100.0 mg/kg/injection, schedule: Q04DX003 (sc), vehicle: Klucel (hydroxypropylcellulose) (HPC) 113 % of control | dose: 100.0 mg/kg/injection, schedule: Q08DX002 (ip), vehicle: saline 87 % of control | dose: 200.0 mg/kg/injection, schedule: Q01DX001 (ip), vehicle: saline 114 % of control | [3] 100 % of control | dose: 200.0 mg/kg/injection, schedule: Q08DX002 (ip), vehicle: saline 100 % of control | dose: 400.0 mg/kg/injection, schedule: Q01DX001 (ip), vehicle: saline 121 % of control | [4] 106 % of control | dose: 400.0 mg/kg/injection, schedule: Q08DX002 (ip), vehicle: saline 87 % of control | dose: 800.0 mg/kg/injection, schedule: Q01DX001 (ip), vehicle: saline 121 % of control | dose: 800.0 mg/kg/injection, schedule: Q04DX003 (ip), vehicle: saline 106 % of control | dose: 800.0 mg/kg/injection, schedule: Q08DX002 (ip), vehicle: saline 100 % of control

Cn1c2ccccc2c(=O)c2ccc(Cl)cc21
inactive: [5] 105 % of control | [6] 105 % of control | [7] 100 % of control

CC(=O)Nc1ccc(S(=O)(=O)F)cc1[N+](=O)[O-]
inactive: [8] 100 % of control | [1] 100 % of control | [2] 115 % of control

CC(Br)C(=O)NC(CO)C(=O)O (configuration not stated)
inactive: [2] 95 % of control | [3] 91 % of control | [4] 91 % of control

COB1OB(OC)OB(OC)O1
inactive: [9] 104 % of control | [5] 100 % of control | [10] 100 % of control | [6] 100 % of control | [11] 109 % of control | [7] 100 % of control

O=[N+]([O-])c1ccc(N2CCCCC2)c([N+](=O)[O-])c1
inactive: dose: 12.5 mg/kg/injection, schedule: Q01DX009 (ip), vehicle: saline 110 % of control | dose: 25.0 mg/kg/injection, schedule: Q01DX009 (ip), vehicle: saline 109 % of control | [8] 121 % of control | dose: 50.0 mg/kg/injection, schedule: Q01DX009 (ip), vehicle: saline 116 % of control | [1] 114 % of control | dose: 100.0 mg/kg/injection, schedule: Q01DX009 (ip), vehicle: saline 100 % of control | [2] 112 % of control | dose: 200.0 mg/kg/injection, schedule: Q01DX009 (ip), vehicle: saline 110 % of control | [3] 123 % of control | dose: 400.0 mg/kg/injection, schedule: Q01DX009 (ip), vehicle: saline 110 % of control | [4] 102 % of control

CCOC(=O)C(=CNc1ccccc1OC)C(=O)OCC
inactive: dose: 1.56 mg/kg/injection, schedule: Q01DX009 (ip), vehicle: saline with Tween-80 112 % of control | dose: 3.12 mg/kg/injection, schedule: Q01DX009 (ip), vehicle: saline with Tween-80 104 % of control | dose: 6.25 mg/kg/injection, schedule: Q01DX009 (ip), vehicle: saline with Tween-80 102 % of control | dose: 12.5 mg/kg/injection, schedule: Q01DX009 (ip), vehicle: saline with Tween-80 102 % of control and 116 % of control | [12] 98 % of control and 123 % of control | [13] 100 % of control and 116 % of control and 121 % of control | dose: 50.0 mg/kg/injection, schedule: Q04DX003 (ip), vehicle: saline with Tween-80 99 % of control | [9] 102 % of control and 114 % of control | [5] 96 % of control | [10] 109 % of control | [6] 96 % of control | [11] 106 % of control | [7] 96 % of control

Cc1ccc(NS(=O)(=O)c2ccc(F)cc2)c(C)c1
inactive: dose: 100.0 mg/kg/injection, schedule: Q04DX003 (ip), vehicle: Klucel (hydroxypropylcellulose) (HPC) 100 % of control | dose: 200.0 mg/kg/injection, schedule: Q04DX003 (ip), vehicle: Klucel (hydroxypropylcellulose) (HPC) 100 % of control | dose: 400.0 mg/kg/injection, schedule: Q04DX003 (ip), vehicle: Klucel (hydroxypropylcellulose) (HPC) 100 % of control

C[n+]1c(-c2ccc(Cl)c(Cl)c2)c2cc(N)ccc2c2ccccc21
inactive: dose: 0.78 mg/kg/injection, schedule: Q01DX009 (ip), vehicle: water 107 % of control | dose: 0.78 mg/kg/injection, schedule: Q04DX003 (ip), vehicle: water 100 % of control | dose: 1.56 mg/kg/injection, schedule: Q01DX009 (ip), vehicle: water 114 % of control | dose: 1.56 mg/kg/injection, schedule: Q04DX003 (ip), vehicle: water 100 % of control | dose: 3.12 mg/kg/injection, schedule: Q04DX003 (ip), vehicle: water 106 % of control | dose: 6.25 mg/kg/injection, schedule: Q04DX003 (ip), vehicle: water 106 % of control | dose: 12.5 mg/kg/injection, schedule: Q01DX009 (ip), vehicle: water 109 % of control

CC(=O)c1ccc2c(c1)[nH]c1ccccc12
inactive: [5] 100 % of control | [6] 86 % of control | [7] 95 % of control

Nc1ccccc1N
inactive: [12] 92 % of control and 100 % of control | [13] 100 % of control | [10] 97 % of control

CCCCOCN(COCCCC)c1ccc([N+](=O)[O-])cc1
inactive: [13] 106 % of control | [9] 104 % of control | [10] 100 % of control

Reference: PubChem BioAssay AID328 (DTP/NCI, 2004)
